Data from PMC9610897, “Cationic Perylene Antivirals with Aqueous Solubility for Studies In Vivo” (Pharmaceuticals, 2022).
Values after ≈ are worked out from the molar mass of the structure shown. Like-named read-outs stand apart in the source and are kept apart here.

Columns and labels:
[1] = test system: SARS-CoV-2; assay: SARS-CoV-2 cytopathic effect (CPE) inhibition test; type: cell-based, strain PIK35; settings: for EC50: Severe acute respiratory syndrome coronavirus 2, 120 h, CPE inhibition in Vero cells, 5 days, M ± SD, read-out: Antiviral Activity, EC50 ± SD, SARS-CoV-2
Source text: (§1) The green monkey kidney (Vero) cell line originated from WHO Biologicals, Switzerland (10–87), and the Madin-Darby canine kidney (MDCK) cell line was obtained from the American Type Culture Collection (ATCC CCL-34).
(§2) Viruses and strains used in the present work were severe acute respiratory syndrome-related coronavirus 2 (SARS-CoV-2, strain PIK35, GISAID EPI_ISL_428852), Chikungunya virus (CHIKV, strain Nic, GenBank IDs MN271691-2) and influenza A virus (H1N1, strain A/PR/8/34, ATCC VR-95).
The procedure was described previously. In brief, two-fold dilutions of the compounds were prepared in Dulbecco MEM (Chumakov FSC R&D IBP RAS, Russia) and mixed 1:1 with a virus suspension containing 50–200 TCID50 and incubated for 1 h at 37 °C in a CO2 incubator. The final concentration series started from 100 μM. Then, compound-virus mixtures were added to confluent Vero cell monolayers in 2 replicates. After incubation at 37 °C in a CO2-incubator for 5 days, CPE signs (cell death) were assessed via microscope, and 50% effective concentration (EC50) (compound concentration required to decrease CPE by 50%) was calculated using the Karber method.

[2] = Solubility in water (photometry); type: physicochemical; settings: for solubility at 30 min: thermodynamic from solid, distilled water, sonication, centrifugation, photometry
Protocol: The samples were dissolved in DMSO, diluted in series, and photometrically analyzed. The average molar absorption coefficient was calculated from the obtained optical densities of calibration solutions at the absorption maxima. Solubility values were determined as previously described by adding weighed amounts of compounds to distilled water followed by sonication (30 min), centrifugation (12,000 rpm, 10 min), and photometry.

[3] = test system: IAV; assay: IAV virus yield reduction assay; type: cell-based, influenza A virus (H1N1, strain A/PR/8/34); settings: Influenza A virus; virus yield reduction in MDCK cells, MOI 1, 24 h, M ± SD; read-out: Antiviral Activity, EC50 ± SD, IAV
Source text: as §1, §2
Compound solutions were prepared in DMSO (20 mg/mL). The compounds were weighed in 2 mg amounts and dissolved in 100 μL of DMSO. Then, a series of 3-fold dilutions was prepared, starting from 300 µg/mL, in a cultural medium. The MDCK cell monolayer was treated with compound dilutions and incubated for 1 h in a CO2 incubator at 37 °C. Untreated cells were used as negative control. Afterward, the virus was added (MOI 1), and cells were incubated for 24 h at 37 °C in a CO2 incubator. After incubation, the culture medium was collected, and viral yields were determined by titration. In brief, a series of 10-fold dilutions (10^−7–10^−1) of viral supernatants were prepared in a cultural medium and applied to daily MDCK cell monolayers. Infected cells were incubated for 72 h at 37 °C in a CO2 incubator. The presence of the virus in the culture supernatants was determined using the hemagglutination assay with a 1% suspension of chicken erythrocytes. Viral titer was calculated according to the Reed-and-Muench method and was expressed as 50% tissue infectious doses (TID50) per 100 μL of volume. Inhibition (%) was calculated by comparison with non-treated cells, and EC50 was calculated from inhibitory curves.

[4] = Cell viability assay in Vero cells (resazurin); type: cell-based; settings: green monkey, 5 d, read-out: Cytotoxicity, CC50 ± SD, Vero
Protocol: as §1
Two-fold dilutions of the compounds (starting from 100 μM) were prepared in DMEM (Chumakov FSC R&D IBP RAS, Russia) and added to confluent cell monolayers. After 5 days of incubation (37 °C, 5% CO2), the cultural supernatant was substituted with a resazurin solution (25 μg/mL), followed by 4 h incubation (37 °C, 5% CO2). Then, 20 µL of 10% SDS were added to stop the reaction. Fluorescence intensity was measured with Promega GloMax-Multi Detection System (Ex525/Em580–640). Cells treated with dilutions of the compounds and DMSO, but not resazurin, were used to subtract the background fluorescence. All experimental procedures were performed in two replicates. Fluorescence curves were analyzed with Microsoft Excel 2013. 50% Cytotoxic concentrations (CC50) were calculated.

[5] = Cell viability assay in MDCK cells (MTT); type: cell-based, canine; settings: dog, read-out: Cytotoxicity, CC50 ± SD, MDCK
Protocol: as §1
Compound solutions were prepared in DMSO (20 mg/mL), and then 2-fold dilutions in cultural medium were prepared starting from 1000 μg/mL. One-day MDCK cell monolayers (over 95% confluency) in 96-well plates ([…]) were washed twice with serum-free alpha-MEM (Thermo-Fisher Scientific, USA) and treated with 100 μL of compound dilutions in 2 replicates. The plates were then incubated for 24 h at 37 °C in a CO2 incubator. Cell viability was assessed using the tetrazolium test (MTT, ApplyChem). Optical density was measured on a Wallac 1420 Victor2 microplate reader (Perkin Elmer, Ramsey, MN, USA) at 535 nm, then CC50 values were calculated.

[6] = test system: CHIKV; assay: CHIKV cytopathic effect (CPE) inhibition test; type: cell-based, Chikungunya virus (CHIKV, strain Nic); settings: for EC50: Chikungunya virus, 120 h, read-out: Antiviral Activity, EC50 ± SD, CHIKV
[7] = test system: influenza A/California/7/09/MA virus; type: in vivo, BALB/c mice; settings: for Average Life Expectancy (M ± SEM): BALB/c mice
[8] = in vitro; type: in vitro ADME; settings: bovine, 80% FBS in 0.05 M PBS pH 7.4, 37 °C, read-out: In vitro FBS half-life (t1/2)
Protocol: In vitro stability of 10 was studied in Gibco FBS (Thermo-Fisher Scientific, USA) by following the reported procedure with minor modifications. A 10 mM solution of the compound in DMSO (20 μL) was added to 80% FBS in 0.05 M PBS (pH 7.4) at 37 °C to yield the final concentration of 200 μM. The assays were carried out in triplicate in a water bath at 37 °C. Samples (100 μL) were taken at 0, 15, 30, 45, 60, 90, 120, 180, 240, and 300 min and added to 400 μL acetonitrile in order to deproteinize the plasma. The samples were then shaken for 1 min and centrifuged at 37 °C at 15,000 rpm for 5 min. The supernatants were analyzed by HPLC (detection at 530 nm). AUC values were determined and averaged from three independent experiments. In vitro serum half-life (t1/2) was calculated using the equation t1/2 = 0.693/b, where b is the slope found by linear fitting of the negative natural logarithm of the fraction remaining (AUC0-300/AUC0) vs. incubation time.

[9] = Stability in stomach acid-mimicking 0.16 M aqueous HCl (TLC); type: physicochemical
Protocol: Since in vivo evaluation of the leader compound in mouse model involves intragastric administration, stability in stomach acid-mimicking 0.16 M aqueous HCl was assessed. The compound was stable, with slight signs of decomposition as determined by thin-layer chromatography (TLC) for at least 4 h, which exceeds the average residence time of drugs in the stomach. Then, stability in fetal bovine serum (FBS) was evaluated.

[10] = concentrations studied up to 100 μM

SMILES: C[N+]1(CCCn2cc(-c3ccc4c5cccc6cccc(c7cccc3c74)c65)nn2)CCOCC1.[I-] [Compound 3b, 4-Methyl-4-(3-(4-(Perylen-3-yl)-1H-1,2,3-triazol-1-yl)propyl)morpholin-4-ium iodide]
- EC50 [1]: 9.2 ± 4.3 µM
- Activity against SARS-CoV-2 (in words) [1, 10]: had activity
- solubility at 30 min [2]: 5 mM
- EC50 [3]: > 100 µM
- CC50 at 5 days [4]: > 100 µM
- CC50 at 24 h [5]: > 100 µM
- EC50 ([6]; Vero): 10.7 ± 2.6 µM
- Activity against CHIKV (in words) [6, 10]: had activity

SMILES: CC(C)[C@H](N)C(=O)O[C@@H]1[C@H](O)[C@@H](CO)O[C@H]1n1cc(C#Cc2ccc3c4cccc5cccc(c6cccc2c63)c54)c(=O)[nH]c1=O [Compound 8, 2′-O-L-Valinyl-5-(perylen-3-ylethynyl)uridine]
- EC50 [1]: 1.28 ± 0.4 µM
- Solubility in water (in words) [2]: poor
- solubility at 30 min [2]: 0.1 mM (≈ 61.8 µg/mL)
- EC50 [3]: 3.8 ± 1.3 µM
- CC50 at 5 days [4]: > 100 µM
- CC50 at 24 h [5]: > 100 µM
- EC50 ([6]; Vero): 0.55 ± 0.33 µM

SMILES: C[n+]1c(C=Cc2ccc3c4cccc5cccc(c6cccc2c63)c54)sc2ccccc21.[Cl-] [Compound 10, 3-Methyl-2-(2-(perylen-3-yl)vinyl)benzo[d]thiazol-3-ium chloride]
- EC50 [1]: 1.45 ± 0.95 µM
- Average Life Expectancy (M ± SEM) ([7]; 0.5 mg/kg intragastric): 8.6 ± 1.0 days
- Protective Index (PI) ([7]; 0.5 mg/kg intragastric): 11%
- Average Life Expectancy (M ± SEM) ([7]; 4.5 mg/kg intragastric): 8.6 ± 1.2 days
- Protective Index (PI) ([7]; 4.5 mg/kg intragastric): 22%
- Weight loss (maximum) ([7]; mouse, in vivo): up to 21.3%
- Solubility in water (in words) [2]: substantial solubility
- solubility at 30 min [2]: 11 mM
- half-life at 200 μM [8]: 2.78 h
- EC50 [3]: 22.7 ± 10 µM
- CC50 at 5 days [4]: > 100 µM
- Stability in 0.16 M aqueous HCl, time stable with slight signs of decomposition [9]: at least 4 h
- CC50 at 24 h [5]: 69 ± 27 µM
- EC50 ([6]; CPE inhibition in Vero cells, 5 days, M ± SD): 0.99 ± 0.15 µM
